Drawing on US12577257B2, “Heterocyclic compounds” (Hoffmann-La Roche Inc., priority 2018, dated 2026), this text covers IC50 for 23 compounds.

SMILES strings stand for the structures. pIC50: −log10 of the molar value.

The target in the test is T1, MAGL (Homo sapiens, UniProt Q99685).
T1 sequence (Q99685 1-303): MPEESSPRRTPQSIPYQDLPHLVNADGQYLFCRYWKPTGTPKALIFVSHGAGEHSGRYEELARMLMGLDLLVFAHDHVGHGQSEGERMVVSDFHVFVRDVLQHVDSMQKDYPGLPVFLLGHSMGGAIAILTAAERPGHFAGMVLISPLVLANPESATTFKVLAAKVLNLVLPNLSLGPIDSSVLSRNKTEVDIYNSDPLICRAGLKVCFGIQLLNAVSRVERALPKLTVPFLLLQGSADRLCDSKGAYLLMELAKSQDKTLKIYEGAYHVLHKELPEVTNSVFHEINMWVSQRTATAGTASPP
Kind of test: 2-AG assay: MAGL hydrolysis of 2-arachidonoylglycerol to arachidonic acid, followed by mass spectrometry. The test is classed as biochemical. As to conditions: footnote [a]: measured in 2-AG assay. The method, then: Alternatively, compounds were profiled for MAGL inhibitory activity by determining the enzymatic activity by following the hydrolysis of the natural substrate 2-arachidonoylglycerol resulting in arachidonic acid, which can be followed by mass spectrometry. This assay is hereinafter abbreviated “2-AG assay”.
The 2-AG assay was carried out in 384 well assay plates (PP, Greiner Cat #784201) in a total volume of 20 μL. Compound dilutions were made in 100% DMSO (VWR Chemicals 23500.297) in a polypropylene plate in 3-fold dilution steps to give a final concentration range in the assay from 12.5 μM to […]. 0.25 μL compound dilutions (100% DMSO) were added to 9 μL MAGL in assay buffer (50 mM TRIS (GIBCO, 15567-027), 1 mM EDTA (Fluka, 03690-100 ml), 0.01% (v/v) Tween. After shaking, the plate was incubated for 15 min at RT. To start the reaction, 10 μL 2-arachidonoylglycerol in assay buffer was added. The final concentrations in the assay was […] and 8 μM 2-arachidonoylglycerol. After shaking and 30 min incubation at RT, the reaction was quenched by the addition of 40 μL of acetonitrile containing 4 μM of d8-arachidonic acid. The amount of arachidonic acid was traced by an online SPE system (Agilent Rapidfire) coupled to a triple quadrupole mass spectrometer (Agilent 6460). A C18 SPE cartridge (G9205A) was used in an acetonitrile/water liquid setup. The mass spectrometer was operated in negative electrospray mode following the mass transitions 303.1→259.1 for arachidonic acid and 311.1→267.0 for d8-arachidonic acid. The activity of the compounds was calculated based on the ratio of intensities [arachidonic acid/d8-arachidonic acid].
For `CN(Cc1ccc(F)cc1Cl)C1COC2(CCN(C(=O)N3CC[C@@H]4OCC(=O)N[C@@H]4C3)CC2)C1` (single isomer, unassigned) [Example 33], the pIC50 (as a rule, the IC50 on a negative log10 scale, so that one unit is a factor of ten) was 6.89. The value for `O=C1CO[C@H]2CCN(C(=O)N3CC4(CN(Cc5ccc(C(F)(F)F)cc5F)C4)C3)C[C@H]2N1` [Example 12, (4aR,8aS)-6-(6-(2-Fluoro-4-(trifluoromethyl)benzyl)-2,6-diazaspiro[3.3]heptane-2-carbonyl)hexahydro-2H-pyrido[4,3-b][1,4]oxazin-3(4H)-one] was 7.80; that for `Cc1ccc(COC2CC3(C2)CN(C(=O)N2CC[C@@H]4OCC(=O)N[C@@H]4C2)C3)cc1C(F)(F)F` [Example 26, (4aR,8aS)-6-(6-((4-Methyl-3-(trifluoromethyl)benzyl)oxy)-2-azaspiro[3.3]heptane-2-carbonyl)hexahydro-2H-pyrido[4,3-b][1,4]oxazin-3(4H)-one] was 7.51; that for `O=C1CO[C@H]2CCN(C(=O)N3CCC4(CC3)CC(Oc3ccc(F)cc3F)C4)C[C@H]2N1` [Example 40, (4aR,8aS)-6-[2-(2,4-Difluorophenoxy)-7-azaspiro[3.5]nonane-7-carbonyl]-4,4a,5,7,8,8a-hexahydropyrido[4,3-b][1,4]oxazin-3-one] was 7.95. For `O=C1CO[C@H]2CCN(C(=O)N3CCC4(CC3)CC(NCc3ccc(F)cc3Cl)CO4)C[C@H]2N1` (single isomer, unassigned) [Example 36] the value was 6.55; for `O=C1CO[C@H]2CCN(C(=O)N3CCC4(CC3)CC(Oc3ccc(C(F)(F)F)cc3F)C4)C[C@H]2N1` [Example 10, (4aR,8aS)-6-(2-(2-Fluoro-4-(trifluoromethyl)phenoxy)-7-azaspiro[3.5]nonane-7-carbonyl)hexahydro-2H-pyrido[4,3-b][1,4]oxazin-3(4)-one], 9.10.

`O=C1CO[C@H]2CCN(C(=O)N3CC4(CC(Oc5ccc(F)cc5Cl)C4)C3)C[C@H]2N1` (stereo in doubt) [Example 41, (4aR,8aS)-6-(6-(2-Chloro-4-fluorophenoxy)-2-azaspiro[3.3]heptane-2-carbonyl)hexahydro-2H-pyrido[4,3-b][1,4]oxazin-3(4H)-one] gave a pIC50 of 6.33. The value for `O=C1CO[C@H]2CCN(C(=O)N3CC4(CC(Oc5ccc(C(F)(F)F)c(C(F)(F)F)n5)C4)C3)C[C@H]2N1` [Example 23, (4aR,8aS)-6-(6-((5,6-Bis(trifluoromethyl)pyridin-2-yl)oxy)-2-azaspiro[3.3]heptane-2-carbonyl)hexahydro-2H-pyrido[4,3-b][1,4]oxazin-3(4H)-one] was 8.32; that for `O=C1CO[C@H]2CCN(C(=O)N3CCC4(CC3)CN(S(=O)(=O)c3ccc(F)cc3Cl)C4)C[C@H]2N1` [Example 27, (4aR,8aS)-6-(2-((2-Chloro-4-fluorophenyl)sulfonyl)-2,7-diazaspiro[3.5]nonane-7-carbonyl)hexahydro-2H-pyrido[4,3-b][1,4]oxazin-3(4H)-one] was 7.48; that for `O=C1CO[C@H]2CCN(C(=O)N3CCC4(CN(Cc5ccc(C(F)(F)F)cc5F)C4)C3)C[C@H]2N1` [Example 15, (4aR,8aS)-6-(2-(2-Fluoro-4-(trifluoromethyl)benzyl)-2,6-diazaspiro[3.4]octane-6-carbonyl)hexahydro-2H-pyrido[4,3-b][1,4]oxazin-3(4H)-one] was 5.69. For `O=C1CO[C@H]2CCN(C(=O)N3CC4(CC(Oc5ccc(C(F)(F)F)cc5F)C4)C3)C[C@H]2N1` [Example 3, (4aR,8aS)-6-(6-(2-Fluoro-4-(trifluoromethyl)phenoxy)-2-azaspiro[3.3]heptane-2-carbonyl)hexahydro-2H-pyrido[4,3-b][1,4]oxazin-3(4H)-one] the value was 8.64. The value for `O=C1CO[C@H]2CCN(C(=O)N3CC4(CC(Oc5ccc(C(F)(F)F)cn5)C4)C3)C[C@H]2N1` [Example 25, (4aR,8aS)-6-(6-((5-(Trifluoromethyl)pyridin-2-yl)oxy)-2-azaspiro[3.3]heptane-2-carbonyl)hexahydro-2H-pyrido[4,3-b][1,4]oxazin-3(4H)-one] was 7.54. On to `O=C1CO[C@H]2CCN(C(=O)N3CC4(CC(Oc5ccc(Cl)cc5C(F)(F)F)C4)C3)C[C@H]2N1` [Example 7, (4aR,8aS)-6-(6-(4-Chloro-2-(trifluoromethyl)phenoxy)-2-azaspiro[3.3]heptane-2-carbonyl)hexahydro-2H-pyrido[4,3-b][1,4]oxazin-3(4H)-one], for which the negative-log IC50 (pIC50) was 8.07. With `O=C1CO[C@H]2CCN(C(=O)N3CCC4(CC3)CC(NS(=O)(=O)c3ccc(F)cc3Cl)CO4)C[C@H]2N1` (stereo in doubt) [Example 31, 2-Chloro-4-fluoro-N-((S)-8-((4aR,8aS)-3-oxooctahydro-2H-pyrido[4,3-b][1,4]oxazine-6-carbonyl)-1-oxa-8-azaspiro[4.5]decan-3-yl)benzenesulfonamide], the pIC50 is 7.29.

`O=C1CO[C@H]2CCN(C(=O)N3CC4(CC(COc5ccc(C(F)(F)F)cc5F)C4)C3)C[C@H]2N1` [Example 43, (4aR,8aS)-6-[6-[[2-Fluoro-4-(trifluoromethyl)phenoxy]methyl]-2-azaspiro[3.3]heptane-2-carbonyl]-4,4a,5,7,8,8a-hexahydropyrido[4,3-b][1,4]oxazin-3-one] had a pIC50 of 9.00. This pIC50 lies 1.71 log units higher than the previous one.

For the compound `O=C1CO[C@H]2CCN(C(=O)N3CCC4(CCN(Cc5ccc(C(F)(F)F)cc5F)C4)C3)C[C@H]2N1` (stereo partly drawn) [Example 14, (4aR,8aS)-6-(7-(2-Fluoro-4-(trifluoromethyl)benzyl)-2,7-diazaspiro[4.4]nonane-2-carbonyl)hexahydro-2H-pyrido[4,3-b][1,4]oxazin-3(4H)-one], the pIC50 is 6.57. For `O=C1CO[C@H]2CCN(C(=O)N3CC4(CN(Cc5ccc(F)cc5Cl)C4)C3)C[C@H]2N1` [Example 11, (4aR,8aS)-6-(6-(2-Chloro-4-fluorobenzyl)-2,6-diazaspiro[3.3]heptane-2-carbonyl)hexahydro-2H-pyrido[4,3-b][1,4]oxazin-3(4H)-one] the value was 7.70; for `O=C1CO[C@H]2CCN(C(=O)N3CCC4(CC3)C[C@H](NS(=O)(=O)c3ccccc3)CO4)C[C@H]2N1` (mixture of isomers) [Example 19, rac-(4aR,8aS)-N-((S)-8-(3-oxooctahydro-2H-pyrido[4,3-b][1,4]oxazine-6-carbonyl)-1-oxa-8-azaspiro[4.5]decan-3-yl)benzenesulfonamide], 6.09; for `O=C1CO[C@H]2CCN(C(=O)N3CCC4(CC3)CC(NS(=O)(=O)c3cccc(C(F)(F)F)c3)CO4)C[C@H]2N1` (stereo in doubt) [Example 32, N-((S)-8-((4aR,8aS)-3-Oxooctahydro-2H-pyrido[4,3-b][1,4]oxazine-6-carbonyl)-1-oxa-8-azaspiro[4.5]decan-3-yl)-3-(trifluoromethyl)benzenesulfonamide], 6.91.

Compound `O=C1CO[C@H]2CCN(C(=O)N3CCC4(CC3)CC(NCc3ccc(F)cc3Cl)CO4)C[C@H]2N1` (mixture of isomers) [Example 38, rac-(4aR,8aS)-6-(3-((2-Chloro-4-fluorobenzyl)amino)-1-oxa-8-azaspiro[4.5]decane-8-carbonyl)hexahydro-2H-pyrido[4,3-b][1,4]oxazin-3(4H)-one] gave a negative logarithm of the IC50 (pIC50) of 6.38.

Take `O=C1CO[C@H]2CCN(C(=O)N3CC4(CC(OCc5ccc(C(F)(F)F)cc5F)C4)C3)C[C@H]2N1` [Example 28, (4aR,8aS)-6-(6-((2-Fluoro-4-(trifluoromethyl)benzyl)oxy)-2-azaspiro[3.3]heptane-2-carbonyl)hexahydro-2H-pyrido[4,3-b][1,4]oxazin-3(4H)-one]: the pIC50 was 7.44. Compound `CN([C@H]1COC2(CCN(C(=O)N3CC[C@@H]4OCC(=O)N[C@@H]4C3)CC2)C1)S(=O)(=O)c1ccc(F)cc1Cl` [Example 24, 2-Chloro-4-fluoro-N-methyl-N-((R)-8-((4aR,8aS)-3-oxooctahydro-2H-pyrido[4,3-b][1,4]oxazine-6-carbonyl)-1-oxa-8-azaspiro[4.5]decan-3-yl)benzenesulfonamide] showed a pIC50 of 7.68. The value for `O=C1CO[C@H]2CCN(C(=O)N3CC4(CC(Oc5cc(C(F)(F)F)c(C(F)(F)F)cn5)C4)C3)C[C@H]2N1` [Example 22, (4aR,8aS)-6-(6-((4,5-Bis(trifluoromethyl)pyridin-2-yl)oxy)-2-azaspiro[3.3]heptane-2-carbonyl)hexahydro-2H-pyrido[4,3-b][1,4]oxazin-3(4H)-one] was 8.42.
